Experimental data published in patent publication US9821080B2 (priority 2011, dated 2017).

Assays:
[1] = system: H1N1; parameters: species or system influenza virus A/Puerto Rico/8/1934 (H1N1)
[2] = system: ST cells; assay type: cell-based, swine

fluorescein isothiocyanate [FITC]
total fluorescence relative to H1N1 modified with 25 μg/ml FSL-FLRO4 [1]: about 9 times
fewer labelled virions infecting cells compared with 25 μg/ml FSL-FLRO4 modified H1N1 [2]: 9 times
